Assay results as given in patent US20220339260A1, “METHOD FOR PRODUCING INSULIN-PRODUCING CELL USING DIHYDROINDOLIZINONE DERIVATIVES” (TOKYO INSTITUTE OF TECHNOLOGY, priority 2019, published 2022).

Tests used:
[1] = tested on: human iPS cell Toe strain; experiment: Effect to promote differentiation from human iPS cells into insulin-producing cells (insulin-positive cell rate, Reference Example 1); type: cell-based; details: 10 μM; average of 30 cases; untreated control 4.9%
Toe human iPS cells = experiment: Differentiation of Toe human iPS cells into iPS-β cells, monolayer culture, protocol #1; type: cell-based; details: treatment from later stage of stage 3 to initial stage of stage 5
Protocol: The Toe human iPS cells were seeded in CellBIND 6-well (CORNING, CLS3335) cell culture plate coated with synthemax II, and differentiated into primitive gut tube cells by the previously described method (Shahjalal et al., 2014). The cells were dissociated with TrypLE Select (Thermo Fisher, 12563011) and cryopreserved in BanBanker (Nippon genetics) at a density of 1.0 to 2.0×10^7 cells/mL until use. One day before compound addition, the cells were thawed in a medium for stage 3 (DMEM (high glucose), 0.25 μM SANT1 (Wako, 197-16351), 0.1 μM LDN193189 (Stemgent, 04-0074), 10 μM SB431542, 2 μM retinoic acid, 1% B27-free serum supplement (Life Technologies, 17504044), and seeded at 150,000 cells per well in CellBIND 96-well (Corning, 3340) cell culture plated coated with synthemax II. The cells were cultured for 1 day in a medium for stage 3 containing a test compound or a negative control (0.01% DMSO). The cells were further cultured for 2 days and 1 day in media for stages 4 and 5, respectively, containing the test compound or the negative control. On the next day, the cells were fixed in 4% paraformaldehyde for analysis using a high-content imager.

What does the source list for `O=C1CCC(C(=O)Nc2ncc(-c3ccccc3)s2)n2cccc21` (centres unmarked) [Synthesis Example 1, 8-Oxo-N-(5-phenylthiazol-2-yl)-6,7-dihydro-5H-indolizine-5-carboxamide]?
average insulin-positive cell rate [1]: 13%; differentiation into iPS-β cells (INS+ cells) (Toe human iPS cells): enhanced differentiation into iPS-β cells
